These results are taken from publication PMC8311653, “Design, Synthesis, In Vitro and In Vivo Characterization of Selective NKCC1 Inhibitors for the Treatment of Core Symptoms in Down Syndrome” (Journal of Medicinal Chemistry, 2021).

For one data set, the target named is T1, NKCC1 (Mus musculus, UniProt P55012).
T1 construct: primary neuronal cultures of dissociated hippocampal neurons were prepared from E18 C57BL/6J mice; endogenous in cells; host or cells: primary hippocampal neurons from E18 C57BL/6J mice, 3 DIV
T1 sequence (P55012 1-1205): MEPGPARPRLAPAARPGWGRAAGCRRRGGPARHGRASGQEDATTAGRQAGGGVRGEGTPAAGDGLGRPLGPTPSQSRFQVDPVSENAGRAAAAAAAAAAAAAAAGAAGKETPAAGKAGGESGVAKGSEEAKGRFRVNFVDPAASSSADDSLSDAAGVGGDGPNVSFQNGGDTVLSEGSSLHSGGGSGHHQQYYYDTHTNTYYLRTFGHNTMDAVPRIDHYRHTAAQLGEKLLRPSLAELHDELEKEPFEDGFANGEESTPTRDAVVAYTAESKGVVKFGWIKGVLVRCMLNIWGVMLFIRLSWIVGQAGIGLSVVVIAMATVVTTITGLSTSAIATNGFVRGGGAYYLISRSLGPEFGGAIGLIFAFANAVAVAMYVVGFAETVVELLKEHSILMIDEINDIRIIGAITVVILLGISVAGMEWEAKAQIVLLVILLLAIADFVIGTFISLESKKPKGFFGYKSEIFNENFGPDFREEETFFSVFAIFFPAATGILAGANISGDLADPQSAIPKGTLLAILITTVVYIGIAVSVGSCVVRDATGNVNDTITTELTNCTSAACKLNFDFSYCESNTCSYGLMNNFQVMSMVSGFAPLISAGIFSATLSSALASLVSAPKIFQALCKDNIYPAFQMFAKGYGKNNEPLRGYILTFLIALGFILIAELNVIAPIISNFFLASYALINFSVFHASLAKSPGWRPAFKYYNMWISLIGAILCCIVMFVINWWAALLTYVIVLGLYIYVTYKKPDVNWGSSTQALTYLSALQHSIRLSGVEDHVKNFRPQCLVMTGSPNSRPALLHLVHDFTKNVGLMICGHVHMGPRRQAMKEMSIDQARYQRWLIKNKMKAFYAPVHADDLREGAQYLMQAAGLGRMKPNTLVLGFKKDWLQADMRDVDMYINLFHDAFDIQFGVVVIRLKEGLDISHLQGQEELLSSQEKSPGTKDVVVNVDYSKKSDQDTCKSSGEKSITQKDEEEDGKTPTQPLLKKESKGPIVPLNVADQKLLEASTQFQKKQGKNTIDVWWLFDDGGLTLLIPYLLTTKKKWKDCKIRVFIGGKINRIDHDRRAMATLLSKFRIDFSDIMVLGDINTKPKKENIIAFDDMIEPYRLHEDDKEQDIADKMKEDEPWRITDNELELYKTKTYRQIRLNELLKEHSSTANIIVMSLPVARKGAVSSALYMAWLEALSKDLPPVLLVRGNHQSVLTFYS
Put plainly: Ca2+ influx assay in immature primary neuronal cultures (indirect measure of NKCC1 inhibition). The class given is cell-based. The protocol:
To perform the Ca^2+-influx assay, primary neuronal cultures of dissociated hippocampal neurons were prepared from E18 C57BL/6J mice (Charles River) as previously described[56] and plated in 96-well black-walled, clear-bottomed plates coated with poly-L-lysine (Sigma; 0.1 mg/mL in 100 mM borate buffer, pH 8.5) at a density of 30,000 cells per well. Neurons were maintained in neurobasal medium supplemented with 2% B-27 supplement, 0.5 mM glutamine, 50 U/mL of penicillin, and 50 μg/mL of streptomycin (all from Gibco). The cells were incubated at 37 °C and 5% CO2 until DIV 3 for the Ca^2+ influx assay.
At 3 DIVs, neurons were loaded with 2.5 μM of the Ca^2+-sensitive day Fluo4-AM (Invitrogen) in extracellular solution (145 mM NaCl, 5 mM KCl, 10 mM HEPES, 5.55 mM glucose, 1 mM MgCl2, and 2 mM CaCl2, pH 7.4). After 15 min, cells were washed twice with extracellular solutions and treated with bumetanide (as a positive control), DMSO (as a negative control), or each of our compounds at 10 μM or 100 μM, in extracellular solution for 15 min. Plates were then loaded onto a Spark (Tecan) multiplate reader equipped with an automatic liquid injector system, and Fluo4 fluorescence was recorded with excitation at 485 nm and emission at 535 nm. For each well, fluorescence was first recorded for 20 s of the baseline and for 20 s after delivery of GABA (100 μM). To evaluate neuronal viability, fluorescence was recorded for an additional 20 s after delivery of a depolarizing KCl stimulus (90 mM final concentration in wells). To represent the fluorescent traces in time, we normalized the fluorescence value for each time point to the average of the fluorescence value for the first 20 s of the baseline (ΔF/F0). To quantify the average effects as represented by the bar plots, we measured the maximum peak increase in ΔF/F0 fluorescence upon GABA application normalized over the maximum peak increase in ΔF/F0 fluorescence upon KCl application. We then presented in the figures all the data as a percentage of the fluorescence increase versus the value of the control DMSO.

Data set [1] in a line: Aqueous kinetic solubility in PBS pH 7.4. The class given is physicochemical. As to conditions: aqueous kinetic solubility from 10 mM DMSO solution in PBS pH 7.4, target concentration 250 μM (final DMSO 2.5%). The protocol:
1. Aqueous kinetic solubility.
30 µL aliquots of 10 mM DMSO stock solution of the test compound were incubated in Phosphate
Buffered Saline (PBS) at pH 7.4 at 25°C for 24h. After centrifugation the dissolved compound in the
supernatant was quantified by LC-MS/MS.
Aqueous kinetic solubility was determined by UV quantification at
215 nm. […]

Data set [2] is described as follows: In vitro metabolic stability in mouse liver microsomes. As to conditions: tissue homogenate, pH 7.4. Put shortly:
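Compound incubated in mouse liver microsomes in 0.1M Tris-HCl pH 7.4 with 10% DMSO; after pre-incubation NADPH, G6P, G6PDH and MgCl2 added, then 37 °C for 1h, sampled at 0, 5, 15, 30, 60 min.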

[3] abbreviates: 100 μM, cultured neurons, 3 DIV.
Setting [4] is: phosphate buffered saline (PBS).

`CN(C)S(=O)(=O)c1cc(C(=O)O)ccc1NCCCCCCCC(F)(F)F` [Compound 1, 3-(-N,N-Dimethylsulfamoyl)-4-(8,8,8-trifluorooctylamino)benzoic Acid]: on NKCC1 (cultured neurons, 3 DIV), the inhibition at 10 µM was 45.7 ± 4.3%. Besides, at NKCC1 (setting [3]), the inhibition at 100 µM was 92.8 ± 1.9%. Moreover, the solubility at 24 h in data set [1] (setting [4]) was > 250 µM. Besides, the half-life at 5 μM in data set [2] is > 1 h.
`CN(C)S(=O)(=O)c1cc(C(=O)O)c(O)cc1NCCCCCCCC(F)(F)F` [Compound 40, 5-(N,N-Dimethylsulfamoyl)-2-hydroxy-4-((8,8,8-trifluorooctyl)amino)benzoic Acid] displayed an inhibition at 10 µM at NKCC1 (cultured neurons, 3 DIV) of 13.9 ± 2%. Besides, at NKCC1 (setting [3]), the “Inhibition 100 μM Ca2+ influx (%)” value was 51.9 ± 4.0% and testing at 100 µM gave an inhibition of 51.8 ± 4%. Also, the “inhibition of NKCC1 in the Ca2+ influx assay (dose dependence)” value at NKCC1 (neuronal cultures, Figures 4A and S2) is “significant dose-dependent inhibition”. In addition, the solubility at 24 h in data set [1] (setting [4]) was > 250 µM. The half-life at 5 μM in data set [2] is > 1 h.
Turning to `CCCCNc1cc(C(=O)O)cc(S(N)(=O)=O)c1Oc1ccccc1` [bumetanide, reference compound], at NKCC1 (cultured neurons, 3 DIV), the inhibition at 10 µM turned out to be 51.9 ± 2.3%. Moreover, 100 µM produced 54.7 ± 2.5% inhibition on NKCC1 (setting [3]). In addition, the solubility at 24 h in data set [1] is > 250 µM. Besides, in data set [2], the half-life at 5 μM was > 1 h.
